According to PubChem BioAssay AID1963839 (Molecular Pharmacology Branch, DTP, NCI, 2024):

Tested on: 817829-284-R-J1-PDC complex spheroid viability
Assay: Anticancer human tumor 817829-284-R-J1-PDC patient-derived colon adenocarcinoma cell line growth inhibition [POLQ]
Settings: for IC50: curve of first compound; for viability, T/C: stronger effect = lower value
Outline: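 Complex spheroid viability model combining PDC tumour cells with endothelial (HUVEC) and MSC stromal cells. Novobiocin, ART-558 or RP6685 were tested singly and in combination with standard and investigational anticancer drugs. Each was titrated in half-log steps from near clinical Cmax, or from 10 microM where Cmax was unknown.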

[1] = second compound 0.0316 µM, first compound 0.00316 µM
[2] = second compound 0.0316 µM, first compound 0.01 µM
[3] = second compound 0.0316 µM, first compound 0.0316 µM
[4] = second compound 0.0316 µM, first compound 0.1 µM
[5] = second compound 0.0316 µM, first compound 0.316 µM
[6] = second compound 0.0316 µM, first compound 1 µM
[7] = second compound 0.1 µM, first compound 0.00316 µM
[8] = second compound 0.1 µM, first compound 0.01 µM
[9] = second compound 0.1 µM, first compound 0.0316 µM
[10] = second compound 0.1 µM, first compound 0.1 µM
[11] = second compound 0.1 µM, first compound 0.316 µM
[12] = second compound 0.1 µM, first compound 1 µM
[13] = second compound 0.316 µM, first compound 0.00316 µM
[14] = second compound 0.316 µM, first compound 0.01 µM
[15] = second compound 0.316 µM, first compound 0.0316 µM
[16] = second compound 0.316 µM, first compound 0.1 µM
[17] = second compound 0.316 µM, first compound 0.316 µM
[18] = second compound 0.316 µM, first compound 1 µM
[19] = second compound 1 µM, first compound 0.00316 µM
[20] = second compound 1 µM, first compound 0.01 µM
[21] = second compound 1 µM, first compound 0.0316 µM
[22] = second compound 1 µM, first compound 0.1 µM
[23] = second compound 1 µM, first compound 0.316 µM
[24] = second compound 1 µM, first compound 1 µM
[25] = second compound 3.16 µM, first compound 0.00316 µM
[26] = second compound 3.16 µM, first compound 0.01 µM
[27] = second compound 3.16 µM, first compound 0.0316 µM
[28] = second compound 3.16 µM, first compound 0.1 µM
[29] = second compound 3.16 µM, first compound 0.316 µM
[30] = second compound 3.16 µM, first compound 1 µM
[31] = second compound 10 µM, first compound 0.00316 µM
[32] = second compound 10 µM, first compound 0.01 µM
[33] = second compound 10 µM, first compound 0.0316 µM
[34] = second compound 10 µM, first compound 0.1 µM
[35] = second compound 10 µM, first compound 0.316 µM
[36] = second compound 10 µM, first compound 1 µM
[37] = second compound 0.0316 µM, first compound 3.16 µM
[38] = second compound 0.0316 µM, first compound 10 µM
[39] = second compound 0.1 µM, first compound 3.16 µM
[40] = second compound 0.1 µM, first compound 10 µM
[41] = second compound 0.316 µM, first compound 3.16 µM
[42] = second compound 0.316 µM, first compound 10 µM
[43] = second compound 1 µM, first compound 3.16 µM
[44] = second compound 1 µM, first compound 10 µM
[45] = second compound 3.16 µM, first compound 3.16 µM
[46] = second compound 3.16 µM, first compound 10 µM
[47] = second compound 10 µM, first compound 3.16 µM
[48] = second compound 10 µM, first compound 10 µM
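Further: spheroids exposed to compounds for 7 days.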
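Wherever viability, T/C is given: 100% = DMSO vehicle-treated spheroids.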

Structure (SMILES): C=CCn1c(=O)c2cnc(Nc3ccc(N4CCN(C)CC4)cc3)nc2n1-c1cccc(C(C)(C)O)n1 + Cc1cccc(N(C)C(=O)C2C(O)CCN2c2nc(C)cc(C(F)(F)F)c2C#N)c1
- IC50 (second compound 0.0316 µM): 155 nM
- IC50 (second compound 0.1 µM): 218 nM
- IC50 (second compound 0.316 µM): 259 nM
- IC50 (second compound 1 µM): 236 nM
- IC50 (second compound 3.16 µM): 258 nM
- IC50 (second compound 10 µM): 233 nM
- viability, T/C [1]: 90.2%
- viability, T/C [2]: 91.5%
- viability, T/C [3]: 102%
- viability, T/C [4]: 53.4%
- viability, T/C [5]: 34.8%
- viability, T/C [6]: 5.25%
- viability, T/C [7]: 91.6%
- viability, T/C [8]: 92.9%
- viability, T/C [9]: 89.3%
- viability, T/C [10]: 71.1%
- viability, T/C [11]: 39.9%
- viability, T/C [12]: 5.58%
- viability, T/C [13]: 98.3%
- viability, T/C [14]: 107%
- viability, T/C [15]: 93.8%
- viability, T/C [16]: 84.9%
- viability, T/C [17]: 42.6%
- viability, T/C [18]: 7.22%
- viability, T/C [19]: 111%
- viability, T/C [20]: 98.2%
- viability, T/C [21]: 101%
- viability, T/C [22]: 82.4%
- viability, T/C [23]: 38.7%
- viability, T/C [24]: 6.42%
- viability, T/C [25]: 104%
- viability, T/C [26]: 102%
- viability, T/C [27]: 99.6%
- viability, T/C [28]: 74.9%
- viability, T/C [29]: 45.3%
- viability, T/C [30]: 6.52%
- viability, T/C [31]: 118%
- viability, T/C [32]: 88.9%
- viability, T/C [33]: 86.2%
- viability, T/C [34]: 79.4%
- viability, T/C [35]: 39.5%
- viability, T/C [36]: 5.63%

Structure (SMILES): CCc1c2c(nc3ccc(O)cc13)-c1cc3c(c(=O)n1C2)COC(=O)[C@]3(O)CC + Cc1cccc(N(C)C(=O)C2C(O)CCN2c2nc(C)cc(C(F)(F)F)c2C#N)c1
- IC50 (second compound 0.0316 µM): < 3.16 nM
- IC50 (second compound 0.1 µM): < 3.16 nM
- IC50 (second compound 0.316 µM): < 3.16 nM
- IC50 (second compound 1 µM): < 3.16 nM
- IC50 (second compound 3.16 µM): < 3.16 nM
- IC50 (second compound 10 µM): < 3.16 nM
- viability, T/C [1]: 25.3%
- viability, T/C [2]: 19%
- viability, T/C [3]: 13.3%
- viability, T/C [4]: 7.02%
- viability, T/C [5]: 5.47%
- viability, T/C [6]: 2.88%
- viability, T/C [7]: 24.9%
- viability, T/C [8]: 16.9%
- viability, T/C [9]: 11.1%
- viability, T/C [10]: 8.13%
- viability, T/C [11]: 5.27%
- viability, T/C [12]: 3.6%
- viability, T/C [13]: 16.9%
- viability, T/C [14]: 15.3%
- viability, T/C [15]: 11.9%
- viability, T/C [16]: 9.03%
- viability, T/C [17]: 5.25%
- viability, T/C [18]: 3.06%
- viability, T/C [19]: 24.7%
- viability, T/C [20]: 18.8%
- viability, T/C [21]: 11.3%
- viability, T/C [22]: 5.74%
- viability, T/C [23]: 5.46%
- viability, T/C [24]: 3.33%
- viability, T/C [25]: 19.6%
- viability, T/C [26]: 15.9%
- viability, T/C [27]: 12.5%
- viability, T/C [28]: 8.19%
- viability, T/C [29]: 4.73%
- viability, T/C [30]: 2.56%
- viability, T/C [31]: 20.8%
- viability, T/C [32]: 17%
- viability, T/C [33]: 11.3%
- viability, T/C [34]: 7.07%
- viability, T/C [35]: 5.05%
- viability, T/C [36]: 2.83%

Structure (SMILES): CNCc1ccc(-c2[nH]c3cc(F)cc4c3c2CCNC4=O)cc1 + Cc1cccc(N(C)C(=O)C2C(O)CCN2c2nc(C)cc(C(F)(F)F)c2C#N)c1
- IC50 (second compound 0.0316 µM): 2240 nM
- IC50 (second compound 0.1 µM): 7640 nM
- IC50 (second compound 0.316 µM): 3410 nM
- IC50 (second compound 1 µM): 2690 nM
- IC50 (second compound 3.16 µM): 3320 nM
- IC50 (second compound 10 µM): 3840 nM
- viability, T/C [3]: 87.5%
- viability, T/C [4]: 67.2%
- viability, T/C [5]: 68.4%
- viability, T/C [6]: 58.2%
- viability, T/C [37]: 49.9%
- viability, T/C [38]: 33.9%
- viability, T/C [9]: 74.9%
- viability, T/C [10]: 67.8%
- viability, T/C [11]: 86.7%
- viability, T/C [12]: 60.4%
- viability, T/C [39]: 74.7%
- viability, T/C [40]: 43%
- viability, T/C [15]: 97.8%
- viability, T/C [16]: 76.5%
- viability, T/C [17]: 70.5%
- viability, T/C [18]: 66.6%
- viability, T/C [41]: 53.7%
- viability, T/C [42]: 36.3%
- viability, T/C [21]: 104%
- viability, T/C [22]: 71.9%
- viability, T/C [23]: 86.4%
- viability, T/C [24]: 55.9%
- viability, T/C [43]: 51.8%
- viability, T/C [44]: 33.1%
- viability, T/C [27]: 82.4%
- viability, T/C [28]: 54.2%
- viability, T/C [29]: 79.1%
- viability, T/C [30]: 77.9%
- viability, T/C [45]: 50.9%
- viability, T/C [46]: 30.3%
- viability, T/C [33]: 70.9%
- viability, T/C [34]: 78.1%
- viability, T/C [35]: 67.1%
- viability, T/C [36]: 62.5%
- viability, T/C [47]: 55.6%
- viability, T/C [48]: 31.4%

Structure (SMILES): O=C(c1cc(Cc2n[nH]c(=O)c3ccccc23)ccc1F)N1CCN(C(=O)C2CC2)CC1 + Cc1cccc(N(C)C(=O)C2C(O)CCN2c2nc(C)cc(C(F)(F)F)c2C#N)c1
- IC50 (second compound 0.0316 µM): 4010 nM
- IC50 (second compound 0.1 µM): 1860 nM
- IC50 (second compound 0.316 µM): 2630 nM
- IC50 (second compound 1 µM): 2910 nM
- IC50 (second compound 3.16 µM): 3650 nM
- IC50 (second compound 10 µM): 4540 nM
- viability, T/C [3]: 75.4%
- viability, T/C [4]: 97.7%
- viability, T/C [5]: 89.7%
- viability, T/C [6]: 69.4%
- viability, T/C [37]: 59.6%
- viability, T/C [38]: 21.8%
- viability, T/C [9]: 84.1%
- viability, T/C [10]: 75.5%
- viability, T/C [11]: 93.3%
- viability, T/C [12]: 60.7%
- viability, T/C [39]: 42.4%
- viability, T/C [40]: 28.9%
- viability, T/C [15]: 119%
- viability, T/C [16]: 61.2%
- viability, T/C [17]: 78.2%
- viability, T/C [18]: 82.7%
- viability, T/C [41]: 44.5%
- viability, T/C [42]: 26.3%
- viability, T/C [21]: 104%
- viability, T/C [22]: 100%
- viability, T/C [23]: 74.2%
- viability, T/C [24]: 66.4%
- viability, T/C [43]: 54.2%
- viability, T/C [44]: 26.6%
- viability, T/C [27]: 108%
- viability, T/C [28]: 111%
- viability, T/C [29]: 81.6%
- viability, T/C [30]: 64.4%
- viability, T/C [45]: 60.3%
- viability, T/C [46]: 30.2%
- viability, T/C [33]: 115%
- viability, T/C [34]: 87.6%
- viability, T/C [35]: 104%
- viability, T/C [36]: 76.2%
- viability, T/C [47]: 64.6%
- viability, T/C [48]: 25.2%
